Values quoted from earlier work as cited in US20110082867A1, “SYSTEM, METHOD, AND COMPUTER PROGRAM PRODUCT FOR ANALYZING DRUG INTERACTIONS” (priority 2009, published 2011).

Legend:
[1] = target: CYP 3A4 (Homo sapiens, UniProt P08684); conditions: Gene CYP 3A4; involvement strength and type
[2] = target: CYP 2E1 (Homo sapiens, UniProt P05181); conditions: Gene CYP 2E1; involvement strength and type
[3] = target: T1, CYP 2A6 (Homo sapiens, UniProt P11509); conditions: Gene CYP 2A6; involvement strength and type
T1 sequence (P11509 1-494): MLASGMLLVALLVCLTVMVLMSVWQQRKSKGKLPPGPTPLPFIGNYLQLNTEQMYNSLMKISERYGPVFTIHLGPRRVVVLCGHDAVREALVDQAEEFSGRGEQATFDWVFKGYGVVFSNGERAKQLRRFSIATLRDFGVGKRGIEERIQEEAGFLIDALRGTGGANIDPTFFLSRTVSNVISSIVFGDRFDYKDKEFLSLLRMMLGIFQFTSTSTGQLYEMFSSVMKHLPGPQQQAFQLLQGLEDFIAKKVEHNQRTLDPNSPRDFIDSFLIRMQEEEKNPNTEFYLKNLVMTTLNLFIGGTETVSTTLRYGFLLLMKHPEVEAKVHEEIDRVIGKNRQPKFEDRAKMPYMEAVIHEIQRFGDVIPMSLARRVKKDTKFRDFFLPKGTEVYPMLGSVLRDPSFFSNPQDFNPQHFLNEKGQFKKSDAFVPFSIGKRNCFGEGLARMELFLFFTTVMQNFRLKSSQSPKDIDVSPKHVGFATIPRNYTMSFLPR

[4] = target: T2, CYP 1A2 (Homo sapiens, UniProt P05177); conditions: Gene CYP 1A2; involvement strength and type
T2 sequence (P05177 1-516): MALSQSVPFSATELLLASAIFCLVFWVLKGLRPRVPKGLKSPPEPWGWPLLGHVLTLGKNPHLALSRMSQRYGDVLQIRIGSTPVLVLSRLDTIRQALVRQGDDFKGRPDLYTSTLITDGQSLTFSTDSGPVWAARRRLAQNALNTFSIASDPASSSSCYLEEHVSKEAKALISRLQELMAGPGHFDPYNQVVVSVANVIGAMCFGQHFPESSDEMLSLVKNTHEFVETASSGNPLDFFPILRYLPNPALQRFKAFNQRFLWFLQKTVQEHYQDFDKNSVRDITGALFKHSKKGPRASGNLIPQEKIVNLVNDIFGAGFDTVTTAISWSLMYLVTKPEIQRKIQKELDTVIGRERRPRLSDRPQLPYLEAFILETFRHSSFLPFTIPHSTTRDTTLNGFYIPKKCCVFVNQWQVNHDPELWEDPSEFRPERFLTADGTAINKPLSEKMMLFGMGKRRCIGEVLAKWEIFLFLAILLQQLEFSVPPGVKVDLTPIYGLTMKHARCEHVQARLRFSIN

[5] = target: CYP 2D6 (Homo sapiens, UniProt P10635); conditions: Gene CYP 2D6; involvement strength and type
Sequence of CYP 2D6 (P10635 whole entry): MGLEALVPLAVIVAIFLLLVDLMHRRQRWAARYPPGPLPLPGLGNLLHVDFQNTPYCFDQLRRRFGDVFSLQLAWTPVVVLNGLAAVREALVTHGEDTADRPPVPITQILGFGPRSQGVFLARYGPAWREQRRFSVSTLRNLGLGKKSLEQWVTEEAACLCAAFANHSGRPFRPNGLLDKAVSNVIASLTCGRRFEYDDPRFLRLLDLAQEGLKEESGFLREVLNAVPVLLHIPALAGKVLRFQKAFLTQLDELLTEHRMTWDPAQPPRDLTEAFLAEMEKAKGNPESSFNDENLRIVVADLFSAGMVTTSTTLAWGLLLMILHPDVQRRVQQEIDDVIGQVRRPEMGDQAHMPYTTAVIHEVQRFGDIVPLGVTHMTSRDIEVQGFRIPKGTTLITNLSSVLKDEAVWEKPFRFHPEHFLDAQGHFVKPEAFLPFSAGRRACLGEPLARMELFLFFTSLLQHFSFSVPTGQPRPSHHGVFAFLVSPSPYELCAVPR

[6] = target: CYP 2C9 (Homo sapiens, UniProt P11712); conditions: Gene CYP 2C9; involvement strength and type
Sequence of CYP 2C9 (P11712 whole entry): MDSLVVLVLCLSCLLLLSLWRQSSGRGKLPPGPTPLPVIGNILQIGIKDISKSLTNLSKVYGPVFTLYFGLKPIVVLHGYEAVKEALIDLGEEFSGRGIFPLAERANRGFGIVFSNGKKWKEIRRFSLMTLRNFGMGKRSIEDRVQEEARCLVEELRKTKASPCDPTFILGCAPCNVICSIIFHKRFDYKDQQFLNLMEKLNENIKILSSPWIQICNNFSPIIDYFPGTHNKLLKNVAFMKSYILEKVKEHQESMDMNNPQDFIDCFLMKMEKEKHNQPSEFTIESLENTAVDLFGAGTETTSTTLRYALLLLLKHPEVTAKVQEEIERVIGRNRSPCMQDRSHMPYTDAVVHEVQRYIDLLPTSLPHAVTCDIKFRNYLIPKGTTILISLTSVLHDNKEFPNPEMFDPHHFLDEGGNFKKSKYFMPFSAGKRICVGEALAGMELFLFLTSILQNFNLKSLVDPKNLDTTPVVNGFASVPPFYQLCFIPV

Sequence of CYP 3A4 (P08684 whole entry): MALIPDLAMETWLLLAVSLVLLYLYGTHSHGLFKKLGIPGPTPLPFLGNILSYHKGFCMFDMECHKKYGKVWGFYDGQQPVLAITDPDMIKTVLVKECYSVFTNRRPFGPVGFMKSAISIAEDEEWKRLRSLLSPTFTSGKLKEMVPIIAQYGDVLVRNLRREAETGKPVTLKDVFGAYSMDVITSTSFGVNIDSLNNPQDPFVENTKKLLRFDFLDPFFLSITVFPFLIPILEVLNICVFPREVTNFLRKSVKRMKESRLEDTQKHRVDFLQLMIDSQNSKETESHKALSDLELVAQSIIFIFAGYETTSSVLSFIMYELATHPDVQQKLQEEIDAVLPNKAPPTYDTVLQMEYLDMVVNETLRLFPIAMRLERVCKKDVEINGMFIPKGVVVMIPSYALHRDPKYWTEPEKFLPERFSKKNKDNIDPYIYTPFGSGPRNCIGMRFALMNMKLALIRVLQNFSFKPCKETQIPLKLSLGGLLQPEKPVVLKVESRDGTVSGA
Sequence of CYP 2E1 (P05181 whole entry): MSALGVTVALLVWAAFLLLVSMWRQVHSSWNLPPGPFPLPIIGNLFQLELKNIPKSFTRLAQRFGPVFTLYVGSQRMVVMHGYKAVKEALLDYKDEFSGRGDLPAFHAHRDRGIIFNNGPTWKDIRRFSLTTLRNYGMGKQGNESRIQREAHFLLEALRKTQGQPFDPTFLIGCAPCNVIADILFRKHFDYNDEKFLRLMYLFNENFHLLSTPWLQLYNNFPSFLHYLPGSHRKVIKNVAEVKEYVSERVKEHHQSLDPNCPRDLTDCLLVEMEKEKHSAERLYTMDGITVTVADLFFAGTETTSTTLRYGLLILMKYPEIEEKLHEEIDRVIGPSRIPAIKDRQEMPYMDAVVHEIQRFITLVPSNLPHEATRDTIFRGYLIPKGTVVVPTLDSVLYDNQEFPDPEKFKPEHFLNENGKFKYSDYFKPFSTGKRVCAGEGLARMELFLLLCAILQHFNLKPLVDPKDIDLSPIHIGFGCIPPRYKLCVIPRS

SMILES | Drug Interaction [1] | Drug Interaction [2] | Drug Interaction [3] | Drug Interaction [4] | Drug Interaction [5] | Drug Interaction [6]
CC(=O)Nc1ccc(O)cc1 [Acetaminophen] | Minor Substrate | Major Substrate | Minor Substrate | Minor Substrate | Minor Substrate | –
COc1ccc2c3c1O[C@H]1[C@@H](O)C=C[C@H]4[C@@H](C2)N(C)CC[C@@]341 [Codeine] | – | – | – | – | Major Substrate | –
CC(=O)CC(c1ccccc1)c1c(O)c2ccccc2oc1=O (stereo not shown) [Warfarin] | – | – | – | – | – | Major Substrate
